According to US10017501B2, “Benzimidazole derivatives as bromodomain inhibitors” (Gilead Sciences, Inc., priority 2013, dated 2018):
Like-named read-outs stand apart in the source and are kept apart here.

Columns and labels:
[1] = tested on: c-Myc produced in MM.1S cells; experiment: c-Myc down regulation assay (MSD); assay type: cell-based; details: 24 hrs
Method: (§1) c-Myc Down Regulation and MM.1S Viability Assays:
An enzyme linked immunosorbent assay using the Meso Scale Diagnostic (MSD) technology was used to detect levels of c-Myc produced in MM.1S cells (ATCC). MM.1S cells were cultured in RPMI-1640 media (Corning), supplemented with 10% FBS (Hyclone), 1% penicillin-streptomycin (Cellgro), 2-mercaptoethanol (Gibco) and seeded onto 384-tissue culture treated filter binding plates (Millipore) at a density of 40K cells/well containing titrations of small molecule inhibitors or DMSO (0.4%) in a volume of […] of media. After an incubation time of 24 hrs, cells were lysed (1× lysis buffer (Thermo) supplemented with protease and phosophatase inhibitor cocktail (Thermo)) and the plates centrifuged (1000 rpm, 1 min) to capture c-Myc on MSD plates coated with a monoclonal c-Myc antibody (Origene). Assay wells were washed (3× Invitrogen wash buffer) and probed with a polyclonal c-Myc antibody (Abcam) and MSD detection antibody solution in order to detect levels of c-Myc on the MSD platform. c-Myc capture was reported in pg/ml based on a standard curve using recombinant c-Myc protein (Prosci). EC50 values were calculated from the fit of the dose-response curves to a four-parameter equation. All EC50 values represent geometric mean values of a minimum of four determinations. These assays generally produced results within 3-fold of the reported mean.

[2] = tested on: MM.1S cells; experiment: MM.1S viability assay (CellTiter Glo); assay type: cell-based; details: 72 hr, read-out: MM.1S Cell viability (EC50)
Method: as §1
For cell viability in the MM.1S cell line, cells were seeded onto 384-tissue culture treated plates (Greiner) at a density of 60K cells/well containing titrations of small molecule inhibitors or DMSO (0.2%). After 72 hr incubation cells were analyzed for cell viability by addition of CellTiter Glo (Promega) to the assay plates. After 15 min incubation at room temperature the signal from the viable cells was analyzed on an Envision plate reader (Perkin Elmer). EC50 values were calculated from the fit of the dose-response curves to a four-parameter equation. All EC50 values represent geometric mean values of a minimum of four determinations. These assays generally produced results within 3-fold of the reported mean.

[3] = tested on: MT-4 cells; experiment: MT-4 proliferation assay; assay type: cell-based, human; details: Table 2, 5 days, Cell Titer Glo, read-out: MT4 Assay (EC50)
Method: MT-4 Proliferation Assay:
Compounds were tested in a standardized high-throughput 384-well assay format. Each compound was serially diluted 3-fold in 100% DMSO in polypropylene 384-well plates using a Biomek FX Workstation, and 0.4 μL compound added to an assay plate containing 40 μL RPMI media. Compounds were arranged in a horizontal pattern, with 10 concentrations per compound, and 8 compounds added per plate. Due to low DMSO tolerability, the final DMSO concentration never exceeded 0.5% (v/v). Each assay plate contained 10 μM Puromycin and 0.5% DMSO in RPMI-1640 as positive and negative controls respectively. MT-4 cells (HTLV-1 transformed, human T lymphoblastoid cells, NIH Aids Reagent program) were added in volumes of 35 μL per well and 2,000 cells per well using a Biotek uFlow Workstation (Biotek, Winooski, Vt.), and the plates subsequently incubated for 5 days at 37° C. in an incubator set at 5% CO2 and 90% humidity.
After 5 days, 22 μL Cell Titer Glo (Promega) was added to the assay plates with a Biotek uFlow Workstation. Plates were subsequently placed on a Perkin Elmer Envision Plate Reader for 5 minutes before the luminescence signal was read.

Row | SMILES | EC50 ([1]; Homo sapiens, MM1.S) | EC50 ([2]; Homo sapiens, MM1.S) | EC50 ([3]; Homo sapiens, MT4, 120 h) | EC50 [1] | EC50 [2] | EC50 [3]
1 | Cc1noc(C)c1-c1cc(C(O)(c2ccccc2)c2ccccn2)c2nc(C3CC3)[nH]c2c1 (stereo not drawn) [Compound 1020-113, (2-cyclopropyl-6-(3,5-dimethylisoxazol-4-yl)-1H-benzo[d]imidazol-4-yl)(phenyl)(pyridin-2-yl)methanol] | 0.0631 µM | 0.169 µM | 0.0199 µM | – | – | –
2 | Cc1noc(C)c1-c1cc(C(O)(c2cccnn2)C2CCCO2)c2nc(C3CC3)[nH]c2c1 (single isomer, unassigned) [Compound 1020-289, (2-cyclopropyl-6-(3,5-dimethylisoxazol-4-yl)-1H-benzo[d]imidazol-4-yl)(pyridazin-3-yl)(tetrahydrofuran-2-yl)methanol] | – | – | – | 0.0057 µM | 0.0178 µM | 0.0042 µM
3 | Cc1noc(C)c1-c1cc(C(O)(c2ccccn2)c2ncccn2)c2nc(C3CC3)[nH]c2c1 (single isomer, unassigned) [Compound 1020-239, (2-cyclopropyl-6-(3,5-dimethylisoxazol-4-yl)-1H-benzo[d]imidazol-4-yl)(pyridin-2-yl)(pyrimidin-2-yl)methanol] | 0.0331 µM | 0.0475 µM | 0.014 µM | – | – | –
